# Where two headings read alike, the source gives them in different places.
# Legend:
# [1] = experiment 3; for salicylate release / permeation through epidermis: epidermis between fiber disc and phosphate buffer pH 7.4 (6 mM, µ=0.2), zero-order after lag time
# Description: Drug release in vitro from the fiber discs at 37 °C was tested in Franz diffusion cells (Crown Glass Co. Inc., Somerville, NJ) (Fig. 3). […] The fiber discs 10 were placed in the diffusion cells so that one side of the anionic ion-exchange fiber was exposed to the dissolution medium. The dissolution medium was pH 7.4 phosphate buffer saline (PBS, 143 mM, µ=0.15 (µ = ionic strength)) in experiment 1 and pH 7.4 phosphate buffer (6 mM, µ=0.2) in experiments 2 and 3. To assess the effect of the skin on drug release (experiment 3), a piece of epidermis 13 was placed between the fiber disc and buffer solution. At fixed times, samples of 250 µl were withdrawn and the drug concentration in the samples were determined by using HPLC (Beckman System Gold, Beckman Instrument, San Ramon, CA) with a Supelcosil LC-18-DB column (5 µm, 150 x 4.6 mm) (Supelco Inc., Rohm and Haab Co., Bellefonte, PA). The mobile phase was a binary mixture of methanol (40 % v/v) and pH 7.0 phosphate buffer (60 %). The detection wavelenght was 298 nm, and the flow rate of 1.0 ml/min, the retention time was 2.6 min.
# [2] = pH 7.0 phosphate buffer (200 mM) containing 6.27 g/l NaCl; donor solution 50 µg/ml; Hirvonen 1994; cited from earlier work
# [3] = human, pH 7.4
# Description: Electrodes for iontophoresis were prepared from silver wire and silver chloride (Aldrich-Chemie, Steinheim, Germany). Direct current (0,5 mA/cm^2) during iontophoresis was delivered by HP 6181C DC current source (Hewlett-Packard, Cupertino, CA) from the electrodes to the diffusion chambers via salt bridges. Salt bridges were prepared by injecting 1 M NaCl-gel (3 % agar) inside plastic tubing (diameter 4 mm, length ca. 15 cm). […] Transdermal permeation of ions increase most during iontophoresis due to electrostatic repulsion. […] Because Ag/AgCl-electrodes cause precipitation of phosphates, we used HEPES-buffer at pH 7,4 during the iontophoresis experiments. […] The chambers were connected in series as constant DC-current was used.
# [4] = for Tacrine permeation Flux: Average ± standard deviation
# [5] = in vivo; cited from earlier work
SMILES,salicylate release / permeation through epidermis [1],salicylate release / permeation through epidermis ([1]; listed as Salicylate),Lag time before steady state release ([1]; with skin),in vitro permeability of anionic salicylate through skin [2],iontophoretic delivery compared to passive permeation from the ion-exchange fiber ([3]; 3.5 %),lag-time of drug permeation ([3]; 5 %),Tacrine permeation Flux ([4]; Passive permeation (3.5 % in ion-exchange fiber)),Tacrine permeation Flux ([4]; Passive permeation (5 % solution)),"Lag-time of permeation ([4]; human, 5 %, pH 7)","Delivery of tacrine across the skin from the cationic ion-exchange fiber ([4]; passive, 3,5 % tacrine in cationic ion-exchange fiber)","Steady-state flux of tacrine across human skin in vitro ([4]; passive, 5 % solution, pH 7,4)",Clearance CL [5],elimination half-life T1/2 [5],peroral bioavailability [5]
"O=C([O-])c1ccccc1O.[Na+] [salicylate, Sodium salicylate]",about 0.08 µg/h,0.08 µg/h,about 2 h,about 0.34 µg/cm^2/h,–,–,–,–,–,–,–,–,–,–
"Nc1c2c(nc3ccccc13)CCCC2 [tacrine, 9-amino-1,2,3,4-tetrahydroacridine]",–,–,–,–,> 10 000 -fold,"about 0,5 h",0.003±0.0006 µg/ h per cm^2,2.95±0.66 µg/ h per cm^2,ca. 24 h,"about 0,003 g/h per cm^2","2,95 g/h per cm^2",about 150 l/h,"1,4 - 3,6 h",5 - 35%

# From patent publication EP0904128B1, “COMPOSITION AND SYSTEM FOR IONTOPHORETIC TRANSDERMAL DELIVERY OF DRUGS” (priority 1996, dated 1997)
